Assay results: patent US10800755B2, “2,6-disubstituted pyridine derivative” (Sumitomo Dainippon Pharma Co., Ltd., priority 2017, dated 2020)
Where two headings read alike, the source gives them in different places.

Assays:
human 5-HT1A receptor [1] = target: T1, human 5-HT1A receptor (Homo sapiens (Human), UniProt P08908); experiment: Test 1: agonistic activity for human 5-HT1A receptor (aequorin/Gα16 luminescence in CHO-K1 cell); type: cell-based; details: for Emax: CHO-K1, 100% = 10 μmol/L endogenous ligand; for EC50: CHO-K1 cell, aequorin luminescence
Procedure: (§1) Test 1: Evaluation of Agonistic Activity for Human 5-HT1A Receptor and Human D4 Receptor
(§2) Aequorin, Gα16 proteins, and each receptor were transiently expressed in CHO-K1 cell (Chinese hamster ovary), and seeded to 384-well plate. The plate was incubated in a CO2 incubator at 37° C. for 24 hours. Each example compound dissolved in DMSO was added thereto, and the change of luminescence amount was measured with Hamamatsu FDSS/μCELL System (Hamamatsu Photonics).

human D4 receptor [2] = target: T2, human D4 receptor (Homo sapiens (Human), UniProt P21917); experiment: Test 1: agonistic activity for human D4 receptor (aequorin/Gα16 luminescence in CHO-K1 cell); type: cell-based; details: for Emax: CHO-K1, 100% = 10 μmol/L endogenous ligand; for EC50: CHO-K1 cell, aequorin luminescence
Procedure: as §1, §2

human 5-HT1A receptor [3] = target: T1, human 5-HT1A receptor; experiment: Test 2: binding activity to human 5-HT1A receptor ([3H] 8-OH-DPAT, CHO cell membrane); details: [3H] 8-OH-DPAT; read-out: 5-HT1A binding affinity (Ki value)
Procedure: (§3) Test 2: Evaluation of Binding Activity to Human 5-HT1A Receptor, Human D4 Receptor, and Human D2 Receptor
(§4) CHO cell membrane fraction in which human 5-HT1A receptor, human D4 receptor, and human D2 receptor were expressed was purchased from PerkinElmer Co., Ltd. In the evaluation test of binding, the test compound dissolved in DMSO, each receptor membrane preparation diluted with buffer solution, and [3H] […] The nonspecific binding to each receptor was evaluated by a competition binding experiment in the presence of 10 μmol/L 8-OH-DPAT, 10 μmol/L dopamine, or 10 μmol/L spiperone, respectively.

human D4 receptor [4] = target: T2, human D4 receptor; experiment: Test 2: binding activity to human D4 receptor ([3H] dopamine, CHO cell membrane)
Procedure: as §3, §4

human D2 receptor = human D2 receptor (Homo sapiens (Human), UniProt P14416); experiment: Test 2: binding activity to human D2 receptor ([3H] spiperone, CHO cell membrane); details: [3H] spiperone; read-out: D2 binding affinity (Ki value)
Procedure: as §3, §4

[5] = Test 3-1: metabolic stability test of human liver microsome (0.1 mg/mL); type: in vitro ADME; details: test compound 0.1 μmol/L, 37° C., 30 minutes
Procedure: Test 3-1: Metabolic Stability Test of Human Liver Microsome
(§5) The stability of the present compounds for human liver microsome metabolism was evaluated as mentioned below. The used human liver microsome was obtained from Xenontech. Human liver microsome, NADPH, and each test compound were mixed in 25 mmol/L phosphate buffer solution (pH 7.4) to adjust each concentration as shown below, and the mixture was incubated at 37° C. for 30 minutes. • human liver microsome: 0.1 mg/mL • NAPDH: 3.2 mmol/L • test compound: 0.1 μmol/L
(§6) The residual ratio of the test compound in each sample after the incubation for 30 minutes was measured with a LC-MS, and the metabolic stability of human liver microsome was calculated about each test compound with the following formula. Metabolic stability of human liver microsome (mL/min/mg protein)=−LN (residual ratio)/“reaction time”/“concentration of human liver microsome”

[6] = Test 3-2: metabolic stability test of human liver microsome (0.5 or 1.0 mg/mL); type: in vitro ADME; details: test compound 0.1 μmol/L, 37° C., 30 minutes
Procedure: Test 3-2: Metabolic Stability Test of Human Liver Microsome
as §5, with “In order to evaluate the metabolic stability of human liver microsomes more precisely, the stability” for “The stability”, “evaluated with a suitable concentration of human liver microsome,” for “evaluated”, “microsome: 0.5 or 1.0” for “microsome: 0.1”
as §6

[7] = Test 4-1: predictive test of human half-life (monkey distribution volume, serum unbound fraction, Test 3-1 stability); details: in vivo, predicted using Test 3-1 metabolic stability
Procedure: Test 4-1: Predictive Test of Human Half-Life
(§7) 0.01 mol/L of the present compound in aqueous hydrochloric acid solution was parenterally administered to cynomolgus monkey. 5 minutes, 15 minutes, 30 minutes, 1 hour, 2 hours, 4 hours, 6 hours, and 24 hours after the administration, the blood was collected. The plasma was obtained from the collected blood, the drug concentration in the plasma was measured with a LC-MS, and the monkey distribution volume was calculated from the transition of the concentrations. The unbound fraction rate of the present compound in serum of human and monkey was measured by equilibrium dialysis method.
Using the monkey distribution volume, the unbound fraction rate in serum of human and monkey, and the result of the metabolic stability of human liver microsome which was obtained in Test 3-1, the half-life in human was calculated according to the formula below. “Human distribution volume”=“monkey distribution volume”×“unbound fraction rate in serum of human”/“unbound fraction rate in serum of monkey” “Human hepatic clearance”=(“human hepatic blood flow”×“unbound fraction rate in serum of human”×56.7×“metabolic stability of human liver microsome”)/(“human hepatic blood flow”+“unbound fraction rate in serum of human”×56.7×“metabolic stability of human liver microsome”) “Half-life in human”=0.693×“human distribution volume”/“human hepatic clearance”

[8] = Test 4-2: predictive test of human half-life (monkey distribution volume, serum unbound fraction, Test 3-2 stability); details: in vivo, predicted using Test 3-2 metabolic stability
Procedure: Test 4-2: Predictive Test of Human Half-Life
as §7
Using the monkey distribution volume, the unbound fraction rate in serum of human and monkey, and the result of the metabolic stability of human liver microsome which was obtained in Test 3-2, the half-life in human was calculated according to the formula below. “Human distribution volume”=“monkey distribution volume”×“unbound fraction rate in serum of human”/“unbound fraction rate in serum of monkey” “Human hepatic clearance”=(“human hepatic blood flow”×“unbound fraction rate in serum of human”×56.7×“metabolic stability of human liver microsome”)/(“human hepatic blood flow”+“unbound fraction rate in serum of human”×56.7×“metabolic stability of human liver microsome”) “Half-life in human”=0.693×“human distribution volume”/“human hepatic clearance”

hERG channel = hERG channel (Homo sapiens (Human), UniProt Q12809); experiment: Test 5-1: activity for inhibiting hERG channel (whole-cell patch clamp, hERG-CHO cell, Qpatch); type: cell-based; details: read-out: hERG inhibition IC50
Procedure: Test 5-1: Evaluation of Activity for Inhibiting hERG Channel
The activity of the present compound for inhibiting hERG channel was measured by whole-cell patch clamp method with auto patch clamp system, using CHO cell wherein hERG channel involved in human rapidly activating delayed rectifier potassium current (IKr) was forcibly expressed.
hERG-CHO cell purchased from ChanTest was incubated at 37° C. in a CO2 incubator, and the cell was exfoliated from the flask with trypsin to prepare a cell suspension, shortly before the hERG current measurement.
Extracellular fluid: 2 mmol/L CaCl2, 1 mmol/L MgCl2, 10 mmol/L HEPES, 4 mmol/L KCl, 145 mmol/L NaCl, 10 mmol/L glucose
Intracellular fluid: 5.4 mmol/L CaCl2, 1.8 mmol/L MgCl2, 10 mmol/L HEPES, 31 mmol/L KOH, 10 mmol/L EGTA, 120 mmol/L KCl, 4 mmol/L Na2-ATP
Test compound solution: The test compound was dissolved in DMSO by adjusting the concentration to 2 mmol/L or 20 mmol/L to prepare each test compound solution. […] (Measurement of Current Value and Data Analysis)
The cell suspension, the extracellular fluid, the intracellular fluid, and the measurement plate were set in an auto patch clamp system, and the hERG current was measured by whole-cell patch clamp method. […] Each pulse interval was 15 seconds. The data analysis was carried out with Qpatch Assay Software (Biolin Scientific). The test was carried out applying increscently 4 concentrations of each test compound, and the average of the peak tail currents that were obtained by the last 3 stimulations in each applied concentration was determined to be the evaluated data. By using the current inhibition rate for the pre-applied current at each concentration of each test compound, IC50 value was calculated by Hill equation with the software.

SD male rat = experiment: Test 6: contextual fear conditioning test; type: in vivo; details: 10 mg/kg administration
Procedure: Test 6: Contextual Fear Conditioning Test
The antianxiety of the present compounds was evaluated in a manner mentioned below.
The evaluation of an 8-week-old SD male rat with a fear conditioning test system (O'HARA & CO., LTD.) was carried out in 2-day test schedule. On the 1st day of the test, by giving 0.5 mA of electric shock to the rat as unconditioned stimulus 5 times for 6 minutes, the rat was made to learn the relationship the context (the illuminance in the cage: 200 lx) which was given as conditioned stimulus, and phobic stimulus. On the 2nd day, the present compound was subcutaneously administered with saline solution to the rat, or orally administered with methylcellulose suspension to the rat. 0.5 or 1 hour after the administration, the rat was made to softly enter the cage under the condition in which the unconditioned stimulus was not given in the context. The time of cataleptic freezing reaction that the rat took for 5-minute freely-moving period and its ratio were measured. The ratios of cataleptic freezing reaction between the solvent-administration group and the present compound-administration group were compared to be statistically processed.

Wistar male rat = experiment: Test 9: microdialysis test (release amount of intracerebral monoamine, orbitofrontal cortex); type: in vivo; details: combination administration with sertraline or single administration
Procedure: Test 9: Microdialysis Test
The effect of the present compound for the release amount of intracerebral monoamine was evaluated in a manner mentioned below.
8-Week-old Wistar male rat was fixed on a brain stereotaxic apparatus under anesthesia. The scalp was incised, the subcutaneous tissue was removed, the position of the bregma was measured, and the installation position of a guide cannula was calculated (the position of the orbitofrontal cortex which defined according to the brain stereotaxic coordinates of Paxinos & Watson (2.0 mm right, 4.2 mm anterior from bregma)). The skull was drilled with a dental drill at the installation position of the guide cannula, and an anchor screw was set about 1 cm posterior to the hole. The guide cannula was set and fixed with a dental cement, and then the scalp was sutured. The animal was released from the brain stereotaxic apparatus, and was moved back to the breeding cage. In the event of the test, the rat was put in an acrylic observable cage, and a dialysis probe was inserted along the guide cannula to connect to a free-moving tube. With an infusion pump, Ringer solution was perfused at 2 μL/min, and the dialysis solution was recovered at 20-minute intervals. […] The recovered dialysis solutions were analyzed with a HPLC-ECD system to determine the contents of norepinephrine (NE), dopamine (DA), and serotonin (5-HT).

[9] = [3H] dopamine, read-out: D4 binding affinity (Ki value)

T1 sequence (P08908 whole entry): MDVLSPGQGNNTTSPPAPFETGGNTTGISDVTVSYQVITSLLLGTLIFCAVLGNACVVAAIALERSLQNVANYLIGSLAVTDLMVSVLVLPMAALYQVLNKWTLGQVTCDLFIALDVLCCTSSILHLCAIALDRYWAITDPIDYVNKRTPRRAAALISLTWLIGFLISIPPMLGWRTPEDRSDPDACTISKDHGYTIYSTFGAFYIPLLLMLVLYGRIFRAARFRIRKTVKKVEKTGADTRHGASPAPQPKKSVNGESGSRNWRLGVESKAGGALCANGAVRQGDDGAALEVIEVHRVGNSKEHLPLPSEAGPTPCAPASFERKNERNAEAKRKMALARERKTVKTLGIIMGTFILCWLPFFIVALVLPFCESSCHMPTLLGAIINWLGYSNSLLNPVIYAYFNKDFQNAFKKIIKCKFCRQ
Sequence of human D2 receptor (P14416 whole entry): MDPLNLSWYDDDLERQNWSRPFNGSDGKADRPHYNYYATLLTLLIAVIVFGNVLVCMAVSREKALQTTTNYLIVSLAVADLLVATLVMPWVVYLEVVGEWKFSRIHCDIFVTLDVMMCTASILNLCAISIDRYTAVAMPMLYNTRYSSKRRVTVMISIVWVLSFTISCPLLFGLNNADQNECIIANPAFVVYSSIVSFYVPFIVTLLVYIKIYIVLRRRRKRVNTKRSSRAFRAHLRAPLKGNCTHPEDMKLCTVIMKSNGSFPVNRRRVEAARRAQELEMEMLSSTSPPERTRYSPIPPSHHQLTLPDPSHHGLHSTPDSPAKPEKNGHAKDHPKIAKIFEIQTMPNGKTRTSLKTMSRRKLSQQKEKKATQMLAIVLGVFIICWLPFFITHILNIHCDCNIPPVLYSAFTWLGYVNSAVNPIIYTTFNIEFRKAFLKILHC
T2 sequence (P21917 whole entry): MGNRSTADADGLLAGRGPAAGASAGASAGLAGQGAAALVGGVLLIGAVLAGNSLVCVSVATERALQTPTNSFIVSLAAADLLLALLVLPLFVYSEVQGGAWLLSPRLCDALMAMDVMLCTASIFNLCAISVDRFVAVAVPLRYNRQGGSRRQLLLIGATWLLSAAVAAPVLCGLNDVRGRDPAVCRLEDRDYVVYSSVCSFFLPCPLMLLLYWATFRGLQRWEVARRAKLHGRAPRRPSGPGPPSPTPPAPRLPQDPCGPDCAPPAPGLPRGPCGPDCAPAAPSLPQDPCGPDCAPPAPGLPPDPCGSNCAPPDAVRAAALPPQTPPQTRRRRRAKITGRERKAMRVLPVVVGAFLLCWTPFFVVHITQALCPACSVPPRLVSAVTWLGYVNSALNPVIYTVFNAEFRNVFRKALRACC
Sequence of hERG channel (Q12809 whole entry): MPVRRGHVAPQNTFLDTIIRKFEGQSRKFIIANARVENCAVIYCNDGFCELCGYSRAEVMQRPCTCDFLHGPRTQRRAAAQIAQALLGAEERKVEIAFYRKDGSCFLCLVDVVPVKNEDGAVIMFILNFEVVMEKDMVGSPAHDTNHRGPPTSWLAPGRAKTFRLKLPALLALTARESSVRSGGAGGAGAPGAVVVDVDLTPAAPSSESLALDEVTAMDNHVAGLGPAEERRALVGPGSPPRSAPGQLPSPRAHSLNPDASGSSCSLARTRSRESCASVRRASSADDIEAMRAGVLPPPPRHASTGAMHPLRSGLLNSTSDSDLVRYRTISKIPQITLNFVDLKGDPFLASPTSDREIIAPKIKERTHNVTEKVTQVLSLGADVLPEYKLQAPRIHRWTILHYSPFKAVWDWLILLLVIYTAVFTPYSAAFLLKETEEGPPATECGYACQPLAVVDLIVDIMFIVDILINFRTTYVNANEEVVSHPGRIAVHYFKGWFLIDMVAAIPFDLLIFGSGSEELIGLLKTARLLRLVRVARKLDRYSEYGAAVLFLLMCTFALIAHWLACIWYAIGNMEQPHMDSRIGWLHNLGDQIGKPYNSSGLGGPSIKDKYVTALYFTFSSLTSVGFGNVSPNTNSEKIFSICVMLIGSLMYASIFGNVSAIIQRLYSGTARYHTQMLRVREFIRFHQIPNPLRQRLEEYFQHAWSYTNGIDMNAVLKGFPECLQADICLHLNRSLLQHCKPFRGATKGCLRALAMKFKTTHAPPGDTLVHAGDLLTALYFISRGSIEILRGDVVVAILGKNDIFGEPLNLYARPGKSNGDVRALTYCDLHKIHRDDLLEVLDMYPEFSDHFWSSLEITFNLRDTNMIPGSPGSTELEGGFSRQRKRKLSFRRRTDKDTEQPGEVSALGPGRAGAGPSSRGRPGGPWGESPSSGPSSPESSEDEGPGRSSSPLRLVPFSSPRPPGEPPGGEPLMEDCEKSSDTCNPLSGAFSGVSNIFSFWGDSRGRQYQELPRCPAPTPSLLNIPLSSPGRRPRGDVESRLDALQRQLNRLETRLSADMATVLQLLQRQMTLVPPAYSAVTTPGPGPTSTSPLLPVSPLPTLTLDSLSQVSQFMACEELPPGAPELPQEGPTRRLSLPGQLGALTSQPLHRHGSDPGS

| Emax (human 5-HT1A receptor [1]) [%] | EC50 (human 5-HT1A receptor [1]) [nM] | Emax (human D4 receptor [2]) [%] | EC50 (human D4 receptor [2]) [nM] | Ki (human 5-HT1A receptor [3]) [nM] | Ki (human D4 receptor [4]; [9]) [nM] | Ki (human D2 receptor) [µM] | Metabolic stability of human liver microsome [5] [mL/min/mg protein] | Metabolic stability of human liver microsome [6] [mL/min/mg protein] | half-life [8] [min] | SMILES | half-life [7] [min] | IC50 (hERG channel) [µM] | decrease of the cataleptic freezing reaction for the solvent-administration group (SD male rat) [%] | Ki (human D4 receptor [4]) [nM] | serotonin content (Wistar male rat) |
| --- | --- | --- | --- | --- | --- | --- | --- | --- | --- | --- | --- | --- | --- | --- | --- |
| 71 | < 10 | 65 | 37.1 | 1.4 | 111 | > 10 | 0.017 | 0.023 | 3540 | Cc1cccc(C2CCN(CCNC(=O)C3CCOCC3)CC2)n1 [Example 8, N-{2-[4-(6-Methylpyridin-2-yl)piperidin-1-yl]ethyl}-tetrahydro-2H-pyran-4-carboxamide] | 552 | 44.3 | 41.0 | – | – |
| 84 | < 10 | 53 | < 10 | 1.1 | 8 | 2.44 | 0.025 | 0.016 | 600 | CC(C)(C)C(=O)NCCN1CCC(c2cccc(C(F)(F)F)n2)CC1 [Example 9, 2,2-dimethyl-N-(2-{4-[6-(trifluoromethyl)pyridin-2-yl]piperidin-1-yl}ethyl)propanamide] | – | 5.9 | – | – | – |

| SMILES | Emax (human 5-HT1A receptor [1]) [%] | EC50 (human 5-HT1A receptor [1]) [nM] | Emax (human D4 receptor [2]) [%] | EC50 (human D4 receptor [2]) [nM] | Ki (human 5-HT1A receptor [3]) [nM] | Ki (human D4 receptor [4]; [9]) [nM] | Ki (human D2 receptor) [µM] | Metabolic stability of human liver microsome [5] [mL/min/mg protein] | Metabolic stability of human liver microsome [6] [mL/min/mg protein] | half-life [8] [min] | half-life [7] [min] | IC50 (hERG channel) [µM] | decrease of the cataleptic freezing reaction for the solvent-administration group (SD male rat) [%] | Ki (human D4 receptor [4]) [nM] | serotonin content (Wistar male rat) |
| --- | --- | --- | --- | --- | --- | --- | --- | --- | --- | --- | --- | --- | --- | --- | --- |
| O=C(NCCN1CCC(c2cccc(C(F)(F)F)n2)CC1)C1CCOCC1 [Example 11, N-(2-{4-[6-(Trifluoromethyl)pyridin-2-yl]piperidin-1-yl}ethyl)-tetrahydro-2H-pyran-4-carboxamide] | 92 | 82 | 56 | 30.8 | 2.1 | – | > 10 | – | 0.0075 | 1020 | 780 | – | – | 44 | did not decrease the serotonin content |
